Source: patent US8076318B2, “Caged ligands and uses thereof” (priority 2002, dated 2011)

Legend:
EcR/RXR [1] = test: Time-dependent luciferase assays after photolysis, with or without washing out extracellular ligand; type: cell-based
Method: Time-dependent luciferase assays. 293T cells were split in a 24-well culture plate (Becton Dickinson Labware, lot #353047) and were transfected by a calcium phosphate method. The cells in 500 μL culture medium were incubated with either 100 μM caged β-ecdysone, 100 μM β-ecdysone, or absent an ecdysteroid ligand. After the cells were incubated with caged β-ecdysone for 16 hours, the medium was removed and washed with PBS once. A fresh medium free of ligand was then immediately added just prior to UV light exposure for 1 min. In the “Caged+hv” experiment, the caged β-ecdysone ligand remained in the medium and these cells were likewise illuminated for 1 min. Cells that were not exposed to ecdysteroid ligand were treated in an otherwise analogous fashion. The cells were then returned to the incubator for various time intervals. Incubation was terminated by treating cells with an extraction buffer (1% Triton X-100 and 1 mM DTT in GME). Luciferase activity was preformed as described above.
Cells were pre-incubated with the caged β-ecdysone 4 for 16 hr, illuminated for 1 min, and then lysed at various time points following photolysis. […] The 293T cell line was pre-incubated with 4 for 16 hr, the media subsequently removed, and the cells washed with PBS. Ecdysone-free media was then added, the cell culture incubated for various time points, and tested for luciferase activity. The gene expression kinetic profile is nearly identical for the two sets of experiments [(4+photolysis) versus (4+washing+photolysis)] during the first 5 hr, which is consistent with the notion that caged β-ecdysone 4 is intracellularly liberated (FIG. 3).
What is the time-dependence of β-ecdysone-induced luciferase expression? We addressed this question by pre-incubating 293T cells with the caged derivative 4 for 16 hr followed by illumination for 1 min. Cells were subsequently incubated for various time intervals, lysed, and luciferase activity assessed. […]

EcR/RXR [2] = test: Immunodetection of intracellularly expressed luciferase, spot illumination; type: cell-based; details: 293T cells; for Luciferase expression by immunofluorescence, without illumination: 100 μM, 16 hr incubation, no light; for Luciferase expression by immunofluorescence after spot illumination: 4 washed out, spot illuminated (~0.25 mm^2) 10 sec, 6 hr incubation
Method: Immunodetection of Intracellularly Expressed Luciferase. 293T cells were transferred to the individual wells of a 24-well culture plate (Becton Dickinson Labware, lot #353047) and transfected as described above. The cells were then incubated with either 100 μM β-ecdysone or 100 μM caged β-ecdysone for 16 hr. The medium was removed and the cells washed once with PBS before addition of an ecdysteroid free medium. The surface of the pre-scored wells was spot illuminated (˜0.25 mm^2) for 10 sec on a light microscope using a 100 W Hg-Arc lamp through an Olympus UAPO 20×/0.40 objective. The cells were then incubated for 6 hr, fixed with 4% formaldehyde in PBS for 60 min, washed with PBS 3×5 min, permeabilized with 0.1% TritonX100 for 10 min, washed with PBS 3×5 min, and blocked with 1% normal donkey serum (Jackson ImmunoResearch catalog #017-000-121) in PBS for 45 min. The cells were subsequently exposed to 300 μL of anti-luciferase pAb (polyclonal goat antibody, Promega, lot #149040) at a concentration of 40 μg/mL in 1% donkey serum in PBS. After incubation for 2 hr at room temperature in a humidified chamber, the cells were washed with PBS 3×15 min and exposed to 300 μL of an Alexa Fluor 568-labeled rabbit anti-goat IgG (20 μg/mL in 1% donkey serum/PBS for 1 hr, Molecular Probes, catalog #A-11079). Unbound antibody was removed by washing with PBS 3×15 min and the cells treated with 300 μL of mounting medium (N-propyl gallate at 6 mg/mL in 1:1 glycerol:PBS). Images were taken using an Olympus IX-70 microscope equipped with a CCD camera.
Light-Driven Spatially-Discrete Luciferase Expression in Transiently Transfected 293T Cells. We examined whether the combination of 4 and spot illumination induces gene activation in a spatially discrete fashion. Transiently transfected 293T cells were incubated with 1 for 16 hr, fixed, permeabilized, exposed to a luciferase antibody, and stained with an Alexa-labeled secondary antibody. […] 293T cells were also exposed to 4, the media replaced with fresh media to remove extracellular 4, and spot illuminated (˜0.25 mm^2) for 10 sec. The cells were then returned to the incubator for 6 hr and subsequently analyzed for luciferase expression.
However, if photo-uncaged intracellular β-ecdysone does migrate to the extracellular environment then it is possible that sites distant from the region of illumination could undergo unintentional gene activation as well. On the other hand, given the small intracellular volume of a typical cell (˜1 pL) it is likely that any uncaged β-ecdysone that escapes from its intracellular locale will be too dilute to effect changes in gene expression profiles at remote sites. We explicitly addressed this possibility by examining spatially-discrete gene activation using spot illumination of cultured 293T cells. Luciferase expression in fixed and permeabilized cells was visually identified via the coupled use of a luciferase antibody and a secondary Alexa-labeled antibody. […] Luciferase expression is not observed in the absence of β-ecdysone (data not shown) nor in the presence of caged β-ecdysone without light (see below). […] Regions outside of the zone of illumination fail to display luciferase expression.

[3] = Photolysis of caged β-ecdysone 4, HPLC analysis and ferrioxalate actinometry; type: physicochemical; details: ferrioxalate actinometry, HPLC peak areas
Method: Photolysis of Caged β-ecdysone 4. A 500 μL 100 μM solution of 4 in 2% methanol/98% water was placed in a 24-well culture plate. Photolysis was performed using an Oriel 200 W Hg arc lamp (model 6283) with a 348 nm filter (Oriel, lot number 51260; 50% internal transmittance at 348 nm and cutoff at 325 nm) to remove short wavelength light and an IR filter to remove heat. Aliquots of 10 μL were removed at different time points of photolysis and were analyzed by analytical HPLC (monitored at 242 nm) employing a Vydac C4 (250 mm×3.0 mm) column and using the following solvent system: a linear gradient from 95% A (water):5% B (acetonitrile) to 50% A (water):50% (acetonitrile) over 15 min followed by 50% A (water):50% B (acetonitrile) for 5 min with flow rate at 1 mL/min.
Photoconversion of Caged β-Ecdysone 4 to β-Ecdysone 1. A preliminary assessment of the light-induced conversion of the caged analog 4 to β-ecdysone 1 was performed using a 24-well plate system. […] Aliquots from the wells were subsequently analyzed by HPLC to assess formation of 1 (data not shown). […] The photochemical quantum yield (φ=0.034) was determined using ferrioxalate actinometry (Hatchard & Parker, 1956) according to the equation φ=ΔP/(I×t), where t is the irradiation time, ΔP is the amount of photolabile converted, and was determined using HPLC peak areas.

EcR/RXR [4] = test: Luciferase expression in transiently transfected 293T cells with and without 1 min illumination; type: cell-based; details: for Fold luciferase induction / Activity as inducing agent in the luciferase-based gene expression system (in words): 293T cells; for Fold luciferase induction: culture media/2% MeOH; for Activity as inducing agent in the luciferase-based gene expression system (in words): without light
Excerpt: Plasmid Description. The luciferase reporter (E/GRE)6TK81LUC consists of multimeric E/GRE binding sites from (E/GRE)4ΔMTVLuc linked to the minimal TK promoter in the pA3LUC reporter plasmid. The modified MMTV promoter from MMTVp206 that incorporates the 5′UTR of v-Ha-ras was inserted into a vector containing a modified ecdysone receptor VgEcR (a gift from R. Evans) to form MMTV-VgEcR.
Cell Culture, DNA Transfection, and Luciferase Assays. Cell culture, DNA transfection, and luciferase assays were performed as previously described (Wantanable et al., 1966). Briefly, 293-derived BOSC cells (293T) were seeded into individual wells of a 24 well plate and maintained in Dulbecco's modified Eagles medium with 10% fetal calf serum and 1% penicillin/streptomycin. Cells were transiently transfected with pVgEcR/RXRα and (E/GRE)6TKLUC via a standard calcium phosphate method. The media was changed after 14 hr and the cells treated with 10 μL of 5 mM β-ecdysone 1 (FIG. 1) in methanol (to furnish a 100 μM final concentration of ecdysteroid). Cells were either left un-illuminated or illuminated for 1 min using an Oriel 200 W Hg arc lamp (model 6283) with a 348 nm filter (Oriel, lot number 51260, 50% internal transmittance at 348 nm and cutoff at <325 nm) to remove short wavelength light and two IR filters to remove heat. Cells were subsequently lysed as previously described and the luciferase assay performed at room temperature using an Autolumat LB 953 (EG & G, Berthold). Luciferase content was measured by calculating the light emitted during 10 sec of the reaction. The values are expressed in arbitrary light units.
Light-Driven Luciferase Expression in Transiently Transfected 293T Cells. We employed a luciferase-based expression system to examine the biological activity of β-ecdysone and its alkylated analog 4. The 293T cell line was transiently transfected to constitutively express EcR/RXR and inducibly express (upon exposure to β-ecdysone) luciferase. Compound 4 was added to the transfected 293T cells, the cell culture subsequently illuminated, and luciferase activity assessed (Table 1). There is little observable luciferase activity with culture media alone. Exposure of the cells to the bioactive β-ecdysone 1 generates a nearly 90-fold induction of luciferase. By contrast, the caged analog 4 furnishes a slight 6-fold induction of activity over that of culture media alone. […] The latter is consistent with our observation that a 1 min photolysis time window converts approximately 60% of the caged derivative 4 into its bioactive counterpart 1. Finally, illumination in the absence of ligand fails to induce luciferase production.

[5] = system: ecdysone-inducible gene expression system; details: cell-based systems; No et al., 1996; Albanese et al., 2000; cited from earlier work
[6] = 293T cells pre-incubated 16 hr with 4, illuminated 1 min
[7] = 100 μM ecdysteroid, not illuminated, versus culture media alone

COc1cc(COC2CC3(C)C(CC2O)C(=O)C=C2C3CCC3(C)C(C(C)(O)C(O)CCC(C)(C)O)CCC23O)c([N+](=O)[O-])cc1OC (stereo not drawn) [caged β-ecdysone 4]
Luciferase activity relative to maximal activity displayed by β-ecdysone (EcR/RXR [1]; 4 + washing (extracellular 4 removed) + 1 min photolysis): 50%
Post-illumination time at which minimal luciferase activity was first observed (EcR/RXR [1]; [6]): 4 h
Time of maximal gene (luciferase) expression after photolysis (EcR/RXR [1]; [6]): 16 h
Luciferase expression by immunofluorescence, without illumination (EcR/RXR [2]): failed to exhibit detectable luciferase expression
Luciferase expression by immunofluorescence after spot illumination (EcR/RXR [2]): spatially discrete luciferase expression is observed
Luciferase expression by immunofluorescence after spot illumination (EcR/RXR [2]; listed as 4): Only those regions exposed to UV light display luciferase production
Photochemical quantum yield φ [3]: 0.034
Luciferase expression relative to that displayed by β-ecdysone 1 (EcR/RXR [4]; 293T cells treated with 4, 1 min photolysis): approximately 60%
Fold luciferase induction (EcR/RXR [4]; [7]): 6 fold
Fold luciferase induction (EcR/RXR [4]; 100 μM ecdysteroid, not illuminated, versus culture media alone, listed as caged β-ecdysome 4): 6.5 ± 0.1 fold
Fold luciferase induction (EcR/RXR [4]; 100 μM, 1 min hν (348 nm filter, Hg arc lamp)): 50 ± 4 fold
Activity as inducing agent in the luciferase-based gene expression system (in words) (EcR/RXR [4]): virtually inactive
Activity as inducing agent in the luciferase-based gene expression system (in words) (EcR/RXR [4]; listed as caged ecdysteroid): nearly inactive

CC(C)CC[C@@H](O)[C@](C)(O)[C@H]1CC[C@@]2(O)C3=CC(=O)[C@]4(O)C[C@@H](O)[C@@H](O)C[C@]4(C)[C@H]3[C@H](O)C[C@]12C [muristerone 6, muristerone]
Activity relative to β-ecdysone [5]: 1,000 times

CC(C)CC[C@@H](O)[C@](C)(O)[C@H]1CC[C@@]2(O)C3=CC(=O)[C@@H]4C[C@@H](O)[C@@H](O)C[C@]4(C)[C@H]3CC[C@]12C [ponasterone A 7, ponasterone A]
Activity relative to β-ecdysone [5]: 1,000 times

CC(C)(O)CC[C@@H](O)[C@](C)(O)[C@H]1CC[C@@]2(O)C3=CC(=O)[C@@H]4C[C@@H](O)[C@@H](O)C[C@]4(C)[C@H]3CC[C@]12C [β-ecdysone 1, β-ecdysone, reference compound]
Luciferase expression by immunofluorescence, without illumination (EcR/RXR [2]): global luciferase expression throughout the cell culture
Luciferase expression by immunofluorescence, without illumination (EcR/RXR [2]; listed as 1): luciferase expression (20% transfection efficiency) was observed throughout the general cell population
Fold luciferase induction (EcR/RXR [4]; [7]): 88 ± 9 fold
Fold luciferase induction (EcR/RXR [4]; 100 μM ecdysteroid, not illuminated, versus culture media alone, listed as β-ecdysone): ~100 fold
